Results as given in ChEMBL document CHEMBL1122475, “Antidepressant activity of 5-aryl-2,3,5,6-tetrahydroimidazo[2,1-a]isoquinolin-5-ols” (1983).
Activity calls are given as the source filed them. The calls are words filed in the database; no cut-off is given here.

What was measured:
Mus musculus [1] = assay: Dose at which 50% convulsions occurred in mice (ip); format: functional
Mus musculus [2] = assay: Dose required to induce hyperactivity in mice (ip); not active at a dose of 25.0 mg/kg; format: functional, organism-based; design: dose 25 mg/kg
Mus musculus [3] = assay: Dose required to induce hypersensitivity in mice (ip); not active at a dose of 25.0 mg/kg; format: functional, organism-based; design: dose 25 mg/kg
Mus musculus [4] = assay: Minimal dose required to cause aggressiveness in mice after ip administration; not active at a dose of 25.0 mg/kg; format: functional, organism-based; design: dose 25 mg/kg
Mus musculus [5] = assay: Minimal dose required to cause piloerection in mice after ip administration; not active at a dose of 25.0 mg/kg; format: functional, organism-based; design: dose 25 mg/kg
Mus musculus [6] = assay: Minimal dose required to induce hyperaesthesia in mice (ip); format: functional
Mus musculus [7] = assay: Minimal dose required to induce in mice exophthalmus (ip); format: functional
Mus musculus [8] = assay: Minimal dose required to induce in mice straub tail (ip); format: functional
Mus musculus [9] = assay: Inhibition of reserpine (5 mg/kg i.p.) induced hypothermia in mice 2 hr after i.p. administration.; format: functional; conditions: ip
Mus musculus [10] = assay: Lethal dose by i.p. administration.; format: functional; conditions: ip
Mus musculus [11] = assay: Inhibition of reserpine (5 mg/kg i.p.) induced hypothermia in mice 4 hr after i.p. administration.; format: functional; conditions: ip
Mus musculus [12] = assay: Dose required to induce hypersensitivity in mice (ip); format: functional
Mus musculus [13] = assay: Minimal dose required to cause piloerection in mice after ip administration; format: functional
Felis catus [14] = assay: Compound tested to induce facilitation of monosynaptic spikes in spinal ventral root by stimulation of the dorsal root (DR-VR) after iv administration in cats; 0.3-1.0; format: functional
Mus musculus [15] = assay: Dose required to induce hyperactivity in mice (ip); not active at a dose of 50.0 mg/kg; format: functional, organism-based; design: dose 50 mg/kg
Mus musculus [16] = assay: Dose required to induce hypersensitivity in mice (ip); not active at a dose of 50.0 mg/kg; format: functional, organism-based; design: dose 50 mg/kg
Mus musculus [17] = assay: Minimal dose required to cause aggressiveness in mice after ip administration; not active at a dose of 50.0 mg/kg; format: functional, organism-based; design: dose 50 mg/kg
Mus musculus [18] = assay: Minimal dose required to induce in mice straub tail (ip); not active at a dose of 50.0 mg/kg; format: functional, organism-based; design: dose 50 mg/kg
Mus musculus [19] = assay: Minimal dose required to cause piloerection in mice after ip administration; not active at a dose of 50.0 mg/kg; format: functional, organism-based; design: dose 50 mg/kg
Mus musculus [20] = assay: Minimal dose required to induce in mice exophthalmus (ip); not active at a dose of 50.0 mg/kg; format: functional, organism-based; design: dose 50 mg/kg
Mus musculus [21] = assay: Dose required to induce hyperactivity in mice (ip); format: functional
Mus musculus [22] = assay: Minimal dose required to induce hyperaesthesia in mice (ip); not active at a dose of 50.0 mg/kg; format: functional, organism-based; design: dose 50 mg/kg
Mus musculus [23] = assay: Minimal dose required to induce hyperaesthesia in mice (ip); not active at a dose of 25.0 mg/kg; format: functional, organism-based; design: dose 25 mg/kg
Mus musculus [24] = assay: Minimal dose required to induce in mice exophthalmus (ip); not active at a dose of 25.0 mg/kg; format: functional, organism-based; design: dose 25 mg/kg
Mus musculus [25] = assay: Minimal dose required to induce in mice straub tail (ip); not active at a dose of 25.0 mg/kg; format: functional, organism-based; design: dose 25 mg/kg
Mus musculus [26] = assay: Dose required to induce hypersensitivity in mice (ip); not active at 12.5 mg/kg; format: functional, organism-based; design: dose 12.5 mg/kg
Mus musculus [27] = assay: Minimal dose required to cause aggressiveness in mice after ip administration; not active at 12.5 mg/kg; format: functional, organism-based; design: dose 12.5 mg/kg
Mus musculus [28] = assay: Minimal dose required to cause piloerection in mice after ip; not active at 12.5 mg/kg; format: functional, organism-based; design: dose 12.5 mg/kg
Mus musculus [29] = assay: Minimal dose required to induce in mice exophthalmus (ip); not active at 12.5 mg/kg at 12.5 mg/kg; format: functional, organism-based
Mus musculus [30] = assay: Minimal dose required to induce in mice straub tail (ip); not active at 12.5 mg/kg at 12.5 mg/kg; format: functional, organism-based
Felis catus [31] = assay: Compound tested to induce facilitation of monosynaptic spikes in spinal ventral root by stimulation of the dorsal root (DR-VR) after iv administration in cats; format: functional

| Compound | CD50 (Mus musculus [1]) [mg/kg] | MD (Mus musculus [6]) [mg/kg] | MD (Mus musculus [7]) [mg/kg] | MD (Mus musculus [8]) [mg/kg] | ED50 (Mus musculus [9]) [mg/kg] | LD50 (Mus musculus [10]) [mg/kg] | ED50 (Mus musculus [11]) [mg/kg] | ED50 (Mus musculus [12]) [mg/kg] | ED50 (Mus musculus [15]) | MD (Mus musculus [17]) | further results |
| --- | --- | --- | --- | --- | --- | --- | --- | --- | --- | --- | --- |
| OC1(c2ccncc2)Cc2ccccc2C2=NCCN21 (centres undefined) | 37.5 | 18.8 | 18.8 | 18.8 | 2.3 | 37.9 | 3.3 |  |  |  | ED50 (Mus musculus [2]): inactive; ED50 (Mus musculus [3]): Weak; MD (Mus musculus [4]): inactive; MD (Mus musculus [5]): inactive |
| OC1(c2ccc(Cl)cc2)c2ccccc2C2=NCCN21 (centres undefined) [MAZINDOL] |  |  |  |  | 0.05 |  | 0.12 |  |  |  |  |
| OC1(c2cccs2)Cc2ccccc2C2=NCCN21 (centres undefined) | 75 | 18.8 | 18.8 | 18.8 | 4.5 | 68.8 | > 25.6 | 25 |  |  | ED50 (Mus musculus [2]): inactive; MD (Mus musculus [4]): inactive; MD (Mus musculus [13]): 25 mg/kg |
| OC1(c2cccc(C(F)(F)F)c2)Cc2ccccc2C2=NCCN21 (centres undefined) | 75 | 37.5 | 37.5 |  | 1.9 | 50 | > 25.6 |  | inactive | inactive | Activity (Felis catus [14]): 0.3 mg/kg; ED50 (Mus musculus [16]): inactive; MD (Mus musculus [13]): 37.5 mg/kg; MD (Mus musculus [18]): inactive |
| Cc1ccc(C2(O)Cc3ccccc3C3=NCCN32)cc1 (centres undefined) | 75 | 37.5 |  | 37.5 | > 25.6 | 84.1 | > 25.6 | 37.5 | inactive | inactive | MD (Mus musculus [19]): inactive; MD (Mus musculus [20]): inactive |
| OC1(c2ccccc2Cl)Cc2ccccc2C2=NCCN21 (centres undefined) | 37.5 | 18.8 | 9.4 | 25 | 6.1 | 34.4 | 11.5 |  |  |  | ED50 (Mus musculus [2]): inactive; ED50 (Mus musculus [3]): inactive; MD (Mus musculus [4]): inactive; MD (Mus musculus [5]): inactive |
| CN(C)CCCN1c2ccccc2CCc2ccccc21 [IMIPRAMINE] |  |  |  |  | 6.3 |  | 12.8 |  |  |  |  |
| OC1(c2ccc(F)cc2)Cc2ccccc2C2=NCCN21 (centres undefined) | 75 | 18.8 | 9.4 | 9.4 | 0.06 | 76.9 | 10 | 25 |  |  | Activity (Felis catus [14]): 0.3 mg/kg; ED50 (Mus musculus [21]): 25 mg/kg; MD (Mus musculus [13]): 18.8 mg/kg |
| COc1ccc(C2(O)Cc3ccccc3C3=NCCN32)cc1 (centres undefined) | 37.5 | 37.5 | 18.8 | 18.8 | 8.4 | 138 | 25.6 | 50 | inactive | inactive | MD (Mus musculus [13]): 37.5 mg/kg |
| OC1(c2ccccc2F)Cc2ccccc2C2=NCCN21 (centres undefined) |  |  |  |  | 5.1 | 35.5 | > 11.5 |  |  |  |  |
| OC1(c2cccnc2)Cc2ccccc2C2=NCCN21 (centres undefined) | 75 |  |  |  | 7 | 68.8 | > 25.6 |  | inactive | inactive | ED50 (Mus musculus [16]): inactive; MD (Mus musculus [19]): inactive; MD (Mus musculus [22]): inactive; MD (Mus musculus [20]): inactive; MD (Mus musculus [18]): inactive |
| OC1(Cc2ccccc2)Cc2ccccc2C2=NCCN21 (centres undefined) | 37.5 |  |  |  | 5.9 | 37.5 | > 25.6 | 25 |  |  | ED50 (Mus musculus [2]): inactive; MD (Mus musculus [4]): inactive; MD (Mus musculus [5]): inactive; MD (Mus musculus [23]): inactive; MD (Mus musculus [24]): inactive; MD (Mus musculus [25]): inactive |
| OC1(c2cccc(Cl)c2)Cc2ccccc2C2=NCCN21 (centres undefined) | 37.5 |  |  |  | 2.1 | 37.5 | 11.5 |  |  |  |  |
| OC1(c2ccccc2)Cc2ccccc2C2=NCCN21 (centres undefined) |  | 9.4 |  |  | 5 | 37.5 | > 9.4 |  |  |  | ED50 (Mus musculus [21]): 12.5 mg/kg; ED50 (Mus musculus [26]): inactive; MD (Mus musculus [27]): inactive; MD (Mus musculus [28]): inactive; MD (Mus musculus [29]): inactive; MD (Mus musculus [30]): inactive |
| OC1(c2ccc(Cl)cc2Cl)Cc2ccccc2C2=NCCN21 (centres undefined) | 75 |  |  |  | 5.4 | 81.3 | > 25.6 |  | inactive | inactive | Activity (Felis catus [31]): >3 mg/kg; ED50 (Mus musculus [16]): inactive; MD (Mus musculus [19]): inactive; MD (Mus musculus [22]): inactive; MD (Mus musculus [20]): inactive; MD (Mus musculus [18]): inactive |
| OC1(c2ccc(Cl)cc2)Cc2ccccc2C2=NCCN21 (centres undefined) | 37.5 | 37.5 | 18.8 | 18.8 | 0.025 | 75 | 6.4 |  |  |  | Activity (Felis catus [31]): >1 mg/kg; ED50 (Mus musculus [21]): 25 mg/kg; ED50 (Mus musculus [3]): inactive; MD (Mus musculus [5]): inactive |
